The values that follow come from US20150119373A1, “NOVEL BETULINIC ACID DERIVATIVES AS HIV INHIBITORS” (HETERO RESEARCH FOUNDATION, priority 2012, published 2015).

Where two headings read alike, the source gives them in different places.

Data set [1] concerns HIV-1 strain 92HT599. Put plainly: Antiviral activity: p24 estimation in MT2 cells infected with HIV-1 strain 92HT599. As to conditions: Human immunodeficiency virus 1, MT2 cells, HIV-1 92HT599, ~96 hours, p24; for inhibition at 0.1 µM: 100 nM, read-out: Antiviral activity % inhibition 100 nM; for inhibition at 1 µM: 1000 nM, read-out: Antiviral activity % inhibition 1000 nM. It is filed as cell-based. As for the experimental part:
MT2 cells were infected with HIV-1 strain 92HT599 (10 TCID 50/30000 cells). The infected cells were plated at the concentration of […] cells per well in 96 well plate. Test compound was added to the micro plate in defined format with the final concentration of DMSO (vehicle) is not more than 1%. Incubation was carried out in CO2 incubator for ˜96 hours for viral infection. At the end of incubation period an aliquot from each well was taken for p24 estimation. The quantitation of p24 is an index for antiviral activity of the compound. Percent inhibition was calculated with reference to control values (vehicle controls).
p-24 estimation was carried out using Advance biosciences kit as per the procedure detailed by supplier.

Data set [2] is described as follows: Cyto-toxicity assay (MTT) in MT2 cells without virus. Format: cell-based. As to conditions: human. As for the experimental part:
For cyto-toxicity assay the same amount of MT2 cells as in antiviral assay without virus was added to the 96 well plates. The cyto-toxicity was measured using MTT reagent in parallel with p24 estimation. The percent viability is calculated in comparison with vehicle control.

Data set [3] in a line: Single dose oral pharmacokinetic study in mice. Format: in vivo. As to conditions: for Cmax / Tmax / AUC(0-t) / AUC(0-inf): mouse, plasma. As for the experimental part:
The test item was administered through oral route to animals (rat/mice) at 30 mg/kg dose in a suitable vehicle at 10 ml/kg dose volume. Blood samples (˜50 uL at each time point) were collected from retro-orbital plexus using K3 EDTA as anticoagulant in eppendorf tubes at defined time intervals under light ether anesthesia. The samples were centrifuged at 3500×g to separate plasma and stored at −80° C. until analysis.
Sample analysis: Test samples were analyzed using LC-MS-MS after developing fit-for-purpose method for each of test compound.

The mark [4] stands for this setting: Mice oral PK @30 mg/kg (Table 5).
Setting [5] is: Mice oral PK @30 mg/kg (Table 5), read-out: AUC 0-t.
The mark [6] stands for this setting: Oral PK @ 30 mg/ kg dose in mice (Table 6).
[7] abbreviates: Oral PK @ 30 mg/ kg dose in mice (Table 6), read-out: AUCt.

In general, inhibition refers to the relative decrease from the control value, in per cent. As a reminder, the viability is a read-out of living cells in per cent, often relative to untreated cells. A low value points to more harm to the cells. In general, Cmax refers to the highest concentration seen after dosing. The Tmax is the time from dosing to the highest level. `CC(C)(CC(=O)O[C@H]1CC[C@]2(C)[C@H]3CC[C@@H]4[C@H]5[C@H]([C@@](C)(O)CO)CC[C@]5(C(=O)N[C@@H]5C[C@H](C(=O)N6CCCCC6)C5(C)C)CC[C@@]4(C)[C@]3(C)CC[C@H]2C1(C)C)C(=O)O` [Example 15, 4-((1R,3aS,5aR,5bR,7aR,9S,11aR,11bR,13aR,13bS)-1-(1,2-dihydroxypropan-2-yl)-3a-((1R,3S)-2,2-dimethyl-3-(piperidine-1-carbonyl)cyclobutylcarbamoyl)-5a,5b,8,8,11a-pentamethylicosahydro-1H-cyclopenta[a]chrysen-9-yloxy)-2,2-dimethyl-4-oxobutanoicacid]: in data set [1], the inhibition at 0.1 µM is 93% and the inhibition at 1 µM was 97%. In data set [2], this molecule had a viability at 100 nM of 95% and a viability at 1000 nM of 95%. In data set [3] (setting [4]), the Cmax was determined as 3780 ng/mL and the Tmax is 0.63 h. Further, in data set [3] (setting [5]), the AUC(0-t) was 31400 ng·h/mL.
In the case of `Cc1nnc([C@H]2C[C@@H](NC(=O)[C@]34CC[C@@H](C5(C)CC5)[C@@H]3[C@H]3CC[C@@H]5[C@@]6(C)CC[C@H](OC(=O)[C@H]7C[C@@H](C(=O)O)C7(C)C)C(C)(C)[C@@H]6CC[C@@]5(C)[C@]3(C)CC4)C2(C)C)o1` [Example 17, (1R,3S)-3-(((1R,3aS,5aR,5bR,7aR,9S,11aR,11bR,13aR,13bR)-3a-((1R,3S)-2,2-dimethyl-3-(5-methyl-1,3,4-oxadiazol-2-yl)cyclobutylcarbamoyl)-5a,5b,8,8,11a-pentamethyl-1-(1-methylcyclopropyl)icosahydro-1H-cyclopenta[a]chrysen-9-yloxy)carbonyl)-2,2-dimethyl cyclobutanecarboxylicacid], in data set [1], the inhibition at 0.1 µM was 100% and the inhibition at 1 µM is 100%. For the same molecule, in data set [2], the viability at 100 nM came out at 77% and the viability at 1000 nM was determined as 89%. Also, in data set [3] (setting [4]), the Cmax was 5940 ng/mL and the Tmax came out at 4.5 h. Further, the AUC(0-t) in data set [3] (setting [5]) is 88300 ng·h/mL.
Consider `C=C(C)[C@@H]1CC[C@]2(C(=O)N[C@@H]3C[C@H](C(=O)N4CCCCC4)C3(C)C)CC[C@]3(C)[C@H](CC[C@@H]4[C@@]5(C)CC[C@H](OC(=O)[C@H]6[C@@H](CC(=O)O)C6(C)C)C(C)(C)[C@@H]5CC[C@]43C)[C@@H]12` [Example 18, 2-((1R,3S)-3-(((1R,3aS,5aR,5bR,7aR,9S,11aR,11bR,13aR,13bR)-3a-((1R,3S)-2,2-dimethyl-3-(piperidine-1-carbonyl)cyclobutylcarbamoyl)-5a,5b,8,8,11a-pentamethyl-1-(prop-1-en-2-yl)icosahydro-1H-cyclopenta[a]chrysen-9-yloxy)carbonyl)-2,2-dimethylcyclopropyl)acetic acid], for which, in data set [1], the inhibition at 0.1 µM was 100% and the inhibition at 1 µM is 100%. In addition, in data set [2], the viability at 100 nM amounted to 82% and the viability at 1000 nM was 77%. Besides, in data set [3] (setting [4]), the Cmax worked out at 4230 ng/mL and the Tmax worked out at 2.25 h. For the same molecule, the AUC(0-t) in data set [3] (setting [5]) is 36600 ng·h/mL.
As a reminder, the AUC(0-inf) is total exposure, with the tail of the curve extrapolated. Read a high AUC(0-inf) as more exposure. As to `C=C(C)[C@@H]1CC[C@]2(C(=O)N[C@@H]3C[C@H](c4nnc(C)o4)C3(C)C)CC[C@]3(C)[C@H](CC[C@@H]4[C@@]5(C)CC[C@H](OC(=O)[C@H]6C[C@@H](C(=O)O)C6(C)C)C(C)(C)[C@@H]5CC[C@]43C)[C@@H]12` [Example 21, (1R,3S)-3-(((1R,3aS,5aR,5bR,7aR,9S,11aR,11bR,13aR,13bR)-3a-((1R,3S)-2,2-dimethyl-3-(5-methyl-1,3,4-oxadiazol-2-yl)cyclobutylcarbamoyl)-5a,5b,8,8,11a-pentamethyl-1-(prop-1-en-2-yl)icosahydro-1H-cyclopenta[a]chrysen-9-yloxy)carbonyl)-2,2-dimethylcyclobutane carboxylicacid], in data set [1], the inhibition at 0.1 µM was 100% and the inhibition at 1 µM was 100%. Further, in data set [2], the viability at 100 nM came out at 94% and the viability at 1000 nM turned out to be 96%. In data set [3] (setting [6]), the Tlast came to 24 h, the AUC(0-inf) was found to be 185000 ng·h/mL, the concentration peaked (Cmax) at 5900 ng/mL and the Tmax was 7 h. Besides, the AUC(0-t) in data set [3] (setting [7]) is 95500 ng·h/mL.
With `[2H]C([2H])([2H])C(CC(=O)O[C@H]1CC[C@]2(C)[C@H]3CC[C@@H]4[C@H]5[C@H](C6(C)CC6)CC[C@]5(C(=O)N[C@@H]5C[C@H](C(=O)N6CCCCC6)C5(C)C)CC[C@@]4(C)[C@]3(C)CC[C@H]2C1(C)C)(C(=O)O)C([2H])([2H])[2H]` [Example 22, 4-(((1R,3aS,5aR,5bR,7aR,9S,11aR,11bR,13aR,13bR)-3a-(((1R,3S)-2,2-dimethyl-3-(piperidine-1-carbonyl)cyclobutyl)carbamoyl)-5a,5b,8,8,11a-pentamethyl-1-(1-methylcyclopropyl)icosahydro-1H-cyclopenta[a]chrysen-9-yl)oxy)-2,2-bis(methyl-d3)-4-oxobutanoic acid], in data set [1], the inhibition at 0.1 µM is 100% and the inhibition at 1 µM was 100%. Further, in data set [2], the viability at 100 nM worked out at 100% and the viability at 1000 nM came out at 87%. Also, in data set [3] (setting [6]), the Tlast was determined as 24 h, the AUC(0-inf) came out at 79000 ng·h/mL, the peak level (Cmax) was 10200 ng/mL and the Tmax was 1.8 h. Moreover, in data set [3] (setting [7]), the AUC(0-t) came out at 63900 ng·h/mL.
For the molecule `CC1([C@@H]2CC[C@]3(C(=O)N[C@@H]4C[C@H](C(=O)N5CCCCC5)C4(C)C)CC[C@]4(C)[C@H](CC[C@@H]5[C@@]6(C)CC[C@H](OC(=O)[C@H]7C[C@@H](C(=O)O)C7(C)C)C(C)(C)[C@@H]6CC[C@]54C)[C@@H]23)CC1` [Example 23, (1R,3S)-3-((((1R,3aS,5aR,5bR,7aR,9S,11aR,11bR,13aR,13bR)-3a-(((1R,3S)-2,2-dimethyl-3-(piperidine-1-carbonyl)cyclobutyl)carbamoyl)-5a,5b,8,8,11a-pentamethyl-1-(1-methylcyclopropyl)icosahydro-1H-cyclopenta[a]chrysen-9-yl)oxy)carbonyl)-2,2-dimethylcyclobutane-1-carboxylic acid], in data set [1], the inhibition at 0.1 µM was 100% and the inhibition at 1 µM was 100%. For the same molecule, in data set [2], the viability at 100 nM stood at 100% and the viability at 1000 nM is 93%. For the same molecule, in data set [3] (setting [6]), the Tlast came out at 48 h, the AUC(0-inf) amounted to 628000 ng·h/mL, the Cmax was found to be 11000 ng/mL and the Tmax stood at 4.5 h. The AUC(0-t) in data set [3] (setting [7]) was 324000 ng·h/mL.
Consider `[2H]C([2H])([2H])C(CC(=O)O[C@H]1CC[C@]2(C)[C@H]3CC[C@@H]4[C@H]5[C@H](C(=C)C)CC[C@]5(C(=O)N[C@@H]5C[C@H](C(=O)N6CCCCC6)C5(C)C)CC[C@@]4(C)[C@]3(C)CC[C@H]2C1(C)C)(C(=O)O)C([2H])([2H])[2H]` [Example 24, 4-(((1R,3aS,5aR,5bR,7aR,9S,11aR,11bR,13aR,13bR)-3a-(((1R,3S)-2,2-dimethyl-3-(piperidine-1-carbonyl)cyclobutyl)carbamoyl)-5a,5b,8,8,11a-pentamethyl-1-(prop-1-en-2-yl)icosahydro-1H-cyclopenta[a]chrysen-9-yl)oxy)-2,2-bis(methyl-d3)-4-oxobutanoic acid], for which, in data set [1], the inhibition at 0.1 µM was 100% and the inhibition at 1 µM is 100%. Besides, in data set [2], the viability at 100 nM stood at 83% and the viability at 1000 nM stood at 99%. In addition, in data set [3] (setting [6]), the Tlast amounted to 24 h, the AUC(0-inf) is 123000 ng·h/mL, the highest level (Cmax) was 9100 ng/mL and the Tmax was 2 h. Besides, the AUC(0-t) in data set [3] (setting [7]) came out at 70000 ng·h/mL.
For `[2H]C([2H])([2H])C(CC(=O)O[C@H]1CC[C@]2(C)[C@H]3CC[C@@H]4[C@H]5[C@H](C(=C)C)CC[C@]5(C(=O)N5CCN(CC)CC5)CC[C@@]4(C)[C@]3(C)CC[C@H]2C1(C)C)(C(=O)O)C([2H])([2H])[2H]` [Example 25, 4-(((1R,3aS,5aR,5bR,7aR,9S,11aR,11bR,13aR,13bR)-3a-(4-ethylpiperazine-1-carbonyl)-5a,5b,8,8,11a-pentamethyl-1-(prop-1-en-2-yl)icosahydro-1H-cyclopenta[a]chrysen-9-yl)oxy)-2,2-bis(methyl-d3)-4-oxobutanoic acid], in data set [1], the inhibition at 0.1 µM is 100% and the inhibition at 1 µM was 100%. Also, in data set [2], the viability at 100 nM was found to be 100% and the viability at 1000 nM came to 84%. In data set [3] (setting [6]), the Tlast was found to be 48 h, the AUC(0-inf) came to 122000 ng·h/mL, the concentration peaked (Cmax) at 6200 ng/mL and the Tmax is 4.5 h. The AUC(0-t) in data set [3] (setting [7]) came out at 108000 ng·h/mL.
